Measurements: paper doi:10.1101/2024.05.17.594698v1 (bioRxiv, 2024)
Where a SMILES comes first, the peptide text is derived from it.

Assays:
AMPK in human CD4+ Tsen = assay: AMPK activity as ACC phosphorylation; assay type: cell-based; details: 4 hours after DOS 10 µM treatment; Fig S3I right, blot number
[1] = system: telomerase in human CD4+ Tsen; assay: Telomerase activity; assay type: cell-based; details: Tsen 3 days after DOS treatment; Fig S4I, n = 5 donors
[2] = system: primary T cell sMAC composed of sestrin and MAPK kinases; assay: Biotinylated DOS pull down from human CD4+ T cell extracts; assay type: binding; details: overnight treatment, streptavidin IP, western blot, Fig 1H
human CD4+ T cells = assay: Cellular toxicity by Annexin V / PI staining; assay type: cell-based; details: DOS 10 µM; Fig S4J, n = 4 donors
[3] = system: primary human CD4+ T cells; assay: DOS-FITC incorporation by flow cytometry; assay type: cell-based; details: T cells depleted of all three sestrins by shRNAs; Fig 1F
[4] = system: recombinant sestrins (sestrin1-FLAG, sestrin2-FLAG); assay: In vitro pull down with biotinylated DOS, recombinant tagged proteins; assay type: binding; details: DOS-biotin 10 µM, streptavidin beads, anti-flag immunoblot; Fig 1C
AMPK1-His-tagged = AMPK1-His-tagged (Homo sapiens, UniProt Q13131); assay: as above; assay type: binding; details: DOS-biotin 10 µM, streptavidin beads; Fig 1C
Sequence of AMPK1-His-tagged (Q13131 whole entry): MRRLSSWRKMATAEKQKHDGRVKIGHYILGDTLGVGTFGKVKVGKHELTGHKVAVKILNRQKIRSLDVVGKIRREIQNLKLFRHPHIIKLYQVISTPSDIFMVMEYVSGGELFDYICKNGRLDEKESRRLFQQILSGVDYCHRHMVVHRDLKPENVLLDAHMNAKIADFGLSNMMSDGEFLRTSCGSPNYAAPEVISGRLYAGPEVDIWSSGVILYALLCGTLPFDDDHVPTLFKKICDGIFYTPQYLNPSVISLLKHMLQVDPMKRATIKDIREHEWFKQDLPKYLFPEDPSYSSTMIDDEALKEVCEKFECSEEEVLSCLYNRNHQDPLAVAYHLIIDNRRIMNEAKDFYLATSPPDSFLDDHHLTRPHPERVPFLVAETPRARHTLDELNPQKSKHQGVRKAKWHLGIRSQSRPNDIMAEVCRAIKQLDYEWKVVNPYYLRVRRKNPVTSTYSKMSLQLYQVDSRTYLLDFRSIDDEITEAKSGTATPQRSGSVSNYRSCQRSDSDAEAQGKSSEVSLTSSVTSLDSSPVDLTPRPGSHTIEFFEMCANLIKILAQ

[5] = target: T1, GATOR/mTOR complex proteins (MIOS and WDR59) (Homo sapiens, UniProt Q6PJI9+Q9NXC5); assay: Biotinylated DOS pull down from human CD4+ T cell extracts; assay type: binding; details: overnight treatment, streptavidin IP, western blot, Fig 1H
T1 sequence (Q9NXC5 1-875): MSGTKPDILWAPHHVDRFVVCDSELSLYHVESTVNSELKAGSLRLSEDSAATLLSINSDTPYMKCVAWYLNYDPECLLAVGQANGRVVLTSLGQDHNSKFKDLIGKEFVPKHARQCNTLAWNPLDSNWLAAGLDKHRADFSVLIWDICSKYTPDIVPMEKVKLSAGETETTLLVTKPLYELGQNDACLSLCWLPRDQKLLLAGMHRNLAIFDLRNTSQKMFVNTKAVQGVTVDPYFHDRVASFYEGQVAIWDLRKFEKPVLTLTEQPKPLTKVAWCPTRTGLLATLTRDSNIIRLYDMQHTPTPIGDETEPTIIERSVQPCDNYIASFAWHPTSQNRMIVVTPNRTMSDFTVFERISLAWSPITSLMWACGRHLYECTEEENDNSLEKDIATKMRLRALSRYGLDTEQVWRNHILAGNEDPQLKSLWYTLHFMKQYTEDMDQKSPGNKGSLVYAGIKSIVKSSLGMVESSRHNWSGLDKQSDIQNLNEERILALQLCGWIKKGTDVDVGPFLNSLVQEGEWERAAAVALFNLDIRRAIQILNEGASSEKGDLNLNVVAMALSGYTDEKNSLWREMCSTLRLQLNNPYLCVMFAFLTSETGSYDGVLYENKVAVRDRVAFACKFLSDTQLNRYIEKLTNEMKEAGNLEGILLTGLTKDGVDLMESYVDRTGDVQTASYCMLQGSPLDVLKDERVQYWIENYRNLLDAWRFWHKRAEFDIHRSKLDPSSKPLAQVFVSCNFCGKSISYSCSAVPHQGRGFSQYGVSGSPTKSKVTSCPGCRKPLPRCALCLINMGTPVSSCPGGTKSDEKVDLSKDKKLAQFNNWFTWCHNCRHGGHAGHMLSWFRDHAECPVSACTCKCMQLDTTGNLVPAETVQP
T1 sequence (Q6PJI9 1-974): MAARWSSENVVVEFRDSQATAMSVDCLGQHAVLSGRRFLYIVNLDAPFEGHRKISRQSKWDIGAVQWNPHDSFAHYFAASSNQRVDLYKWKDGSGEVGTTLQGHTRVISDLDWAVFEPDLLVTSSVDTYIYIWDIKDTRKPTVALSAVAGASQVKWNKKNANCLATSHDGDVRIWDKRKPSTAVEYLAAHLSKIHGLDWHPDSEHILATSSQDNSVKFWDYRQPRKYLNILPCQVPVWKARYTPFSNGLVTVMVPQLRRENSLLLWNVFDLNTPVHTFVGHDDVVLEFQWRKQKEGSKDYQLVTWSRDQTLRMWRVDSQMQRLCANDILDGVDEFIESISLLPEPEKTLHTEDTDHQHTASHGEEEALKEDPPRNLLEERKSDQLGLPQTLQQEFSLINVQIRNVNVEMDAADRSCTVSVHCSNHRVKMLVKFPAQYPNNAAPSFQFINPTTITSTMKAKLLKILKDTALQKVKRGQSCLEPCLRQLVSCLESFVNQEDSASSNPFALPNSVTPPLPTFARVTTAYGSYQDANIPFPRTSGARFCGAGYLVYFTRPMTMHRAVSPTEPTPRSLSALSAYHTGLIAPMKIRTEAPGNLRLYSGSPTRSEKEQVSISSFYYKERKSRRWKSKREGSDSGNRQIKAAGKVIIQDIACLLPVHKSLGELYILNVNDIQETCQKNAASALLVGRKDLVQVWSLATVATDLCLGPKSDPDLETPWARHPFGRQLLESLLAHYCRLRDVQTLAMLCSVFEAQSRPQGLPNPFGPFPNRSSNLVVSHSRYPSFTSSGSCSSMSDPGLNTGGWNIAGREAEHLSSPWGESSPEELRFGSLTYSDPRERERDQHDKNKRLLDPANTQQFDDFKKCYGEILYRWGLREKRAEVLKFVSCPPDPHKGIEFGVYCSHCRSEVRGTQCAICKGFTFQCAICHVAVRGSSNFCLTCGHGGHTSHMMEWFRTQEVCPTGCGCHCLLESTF

H1N1 virus = details: mouse, in vivo
[6] = target: T2, ERK, JNK and p38 MAPK in Tsen sestrin 2 immunoprecipitates (sMACs) (Homo sapiens, UniProt P58004); assay: ELISA-based in vitro kinase assay on sestrin 2 immunoprecipitates; assay type: biochemical; details: DOS 10 µM, 30 minutes, ATP 200 μM; Fig 1I, n = 5 donors
T2 sequence (P58004 1-480): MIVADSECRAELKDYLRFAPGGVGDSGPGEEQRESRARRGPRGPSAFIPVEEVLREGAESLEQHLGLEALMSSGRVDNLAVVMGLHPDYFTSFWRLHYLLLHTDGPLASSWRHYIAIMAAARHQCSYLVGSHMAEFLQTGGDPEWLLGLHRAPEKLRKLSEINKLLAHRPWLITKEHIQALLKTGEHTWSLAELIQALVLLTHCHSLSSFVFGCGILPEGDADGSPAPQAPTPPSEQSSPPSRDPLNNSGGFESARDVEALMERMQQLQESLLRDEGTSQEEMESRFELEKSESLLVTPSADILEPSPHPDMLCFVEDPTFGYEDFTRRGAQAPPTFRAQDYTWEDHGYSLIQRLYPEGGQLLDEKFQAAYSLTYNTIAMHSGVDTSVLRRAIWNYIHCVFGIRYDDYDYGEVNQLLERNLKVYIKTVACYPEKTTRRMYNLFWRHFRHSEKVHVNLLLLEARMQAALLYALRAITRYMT

[7] = Observation of autoimmunity in pre-clinical cohorts; assay type: in vivo; details: large pre-clinical cohorts (over 400 animals)

SMILES: CC[C@H](C)[C@@H]1NC(=O)[C@H](Cc2ccccc2)NC(=O)[C@H](C)NC(=O)[C@H](C(C)C)NC(=O)[C@@H]2CCCN2C1=O [DOS] (cyclo(AFIPV))
- p-ACC/ACC by immunoblotting, fold change to untreated control set as 1 (AMPK in human CD4+ Tsen): 0.25
- Telomerase activity [1]: not affected
- Binding to primary T cell sMAC [2]: directly bound
- Cell damage or death (Annexin-propidium iodide staining) (human CD4+ T cells): did not cause cell damage or death
- DOS entrance in sestrin-null T cells [3]: did not enter
- Direct binding to recombinant sestrins [4]: direct DOS binding to sestrins
- Direct binding to recombinant AMPK (AMPK1-His-tagged): not AMPK
- Binding to GATOR/mTOR complex proteins [5]: not to GATOR/mTOR complex proteins
- Lung necrosis after H1N1 infection (H1N1 virus): no sign of lung necrosis
- ERK, JNK and p38 MAPK kinase activity (autophosphorylation) in sMAC [6]: suppressed
- Spontaneous autoimmunity [7]: yet to see any autoimmunity case
